Assay results: ChEMBL document CHEMBL5584296, “Discovery of Novel Pyrimidine-Based Derivatives as Nav1.2 Inhibitors with Efficacy in Mouse Models of Epilepsy” (J Med Chem, 2024)

Experiments:
[1] = molecular target: T1, Sodium channel protein type 2 subunit alpha (Homo sapiens, UniProt Q99250); assay: Inhibition of human Nav1.2 expressed in HEK293 cells assessed as test to control ratio at 10 uM measured after 5 mins by whole cell voltage clamp electrophysiological analysis; assay type: cell-based
[2] = molecular target: T1, Sodium channel protein type 2 subunit alpha; assay: Inhibition of human Nav1.2 expressed in HEK293 cells assessed as test to control ratio at 0.1 uM measured after 5 mins by whole cell voltage clamp electrophysiological analysis; assay type: cell-based
[3] = molecular target: T1, Sodium channel protein type 2 subunit alpha; assay: Inhibition of human Nav1.2 expressed in HEK293 cells at 0.1 uM measured after 5 mins by whole cell voltage clamp electrophysiological analysis relative to control; assay type: cell-based
[4] = molecular target: Sodium channel protein type 1 subunit alpha (Homo sapiens) (UniProt P35498); assay: Inhibition of human Nav1.1 expressed in HEK293 cells assessed as test to control ratio at 0.1 uM by whole cell voltage clamp electrophysiological analysis; assay type: cell-based
[5] = molecular target: T2, Sodium channel protein type 5 subunit alpha (Homo sapiens, UniProt Q14524); assay: Inhibition of human Nav1.5 expressed in CHL cells assessed as test to control ratio at 0.1 uM by whole cell voltage clamp electrophysiological analysis; assay type: cell-based
[6] = molecular target: T2, Sodium channel protein type 5 subunit alpha; assay: Inhibition of human Nav1.5 expressed in CHL cells assessed as test to control ratio at 1 uM by whole cell voltage clamp electrophysiological analysis; assay type: cell-based
[7] = molecular target: Sodium channel protein type 8 subunit alpha (Homo sapiens) (UniProt Q9UQD0); assay: Inhibition of human Nav1.6 expressed in CHO cells assessed as test to control ratio at 0.1 uM by whole cell voltage clamp electrophysiological analysis; assay type: cell-based
[8] = molecular target: Sodium channel protein type 8 subunit alpha (Homo sapiens) (UniProt Q9UQD0); assay: Inhibition of human Nav1.6 expressed in CHO cells assessed as test to control ratio at 1 uM by whole cell voltage clamp electrophysiological analysis; assay type: cell-based
[9] = Tmax in male ICR mouse at 20 mg/kg, po measured after 24 hrs by LC-MS/MS analysis; assay type: ADME, organism-based; conditions: in vivo
[10] = AUC (0 to infinity) in male ICR mouse at 20 mg/kg, po measured after 24 hrs by LC-MS/MS analysis; assay type: ADME, organism-based; conditions: in vivo
[11] = MRT (0 to infinity) in male ICR mouse at 20 mg/kg, po measured after 24 hrs by LC-MS/MS analysis; assay type: ADME, organism-based; conditions: in vivo
[12] = Half-life in male ICR mouse at 20 mg/kg, po measured after 24 hrs by LC-MS/MS analysis; assay type: ADME, organism-based; conditions: in vivo
[13] = Oral bioavailability in male ICR mouse at 20 mg/kg measured after 24 hrs by LC-MS/MS analysis; assay type: ADME, organism-based; conditions: in vivo
[14] = MRT (0 to infinity) in male ICR mouse at 10 mg/kg, ip measured after 24 hrs by LC-MS/MS analysis; assay type: ADME, organism-based; conditions: in vivo
[15] = Half-life in male ICR mouse at 10 mg/kg, ip measured after 24 hrs by LC-MS/MS analysis; assay type: ADME, organism-based; conditions: in vivo
[16] = Bioavailability in male ICR mouse at 10 mg/kg, ip measured after 24 hrs by LC-MS/MS analysis; assay type: ADME, organism-based; conditions: in vivo
[17] = Cmax in male ICR mouse at 1 mg/kg, iv measured after 24 hrs by LC-MS/MS analysis; assay type: ADME, organism-based; conditions: in vivo
[18] = AUC (0 to infinity) in male ICR mouse at 1 mg/kg, iv measured after 24 hrs by LC-MS/MS analysis; assay type: ADME, organism-based; conditions: in vivo
[19] = Clearance in male ICR mouse at 1 mg/kg, iv measured after 24 hrs by LC-MS/MS analysis; assay type: ADME, organism-based; conditions: in vivo
[20] = Half-life in male ICR mouse at 1 mg/kg, iv measured after 24 hrs by LC-MS/MS analysis; assay type: ADME, organism-based; conditions: in vivo
[21] = Drug concentration in male ICR mouse plasma at 20 mg/kg, po measured after 0.25 hrs by LC-MS/MS analysis; assay type: ADME, organism-based
[22] = Drug concentration in male ICR mouse plasma at 20 mg/kg, po measured after 0.5 hrs by LC-MS/MS analysis; assay type: ADME, organism-based
[23] = Drug concentration in male ICR mouse plasma at 10 mg/kg, ip measured after 0.5 hrs by LC-MS/MS analysis; assay type: ADME, organism-based
[24] = Drug concentration in male ICR mouse brain at 20 mg/kg, po measured after 0.5 hrs by LC-MS/MS analysis; assay type: ADME, organism-based; conditions: read-out: Ct
[25] = Drug concentration in male ICR mouse brain at 10 mg/kg, ip measured after 0.5 hrs by LC-MS/MS analysis; assay type: ADME, organism-based; conditions: read-out: Ct
[26] = Drug concentration in male ICR mouse cerebrospinal fluid at 20 mg/kg, po measured after 0.25 hrs by LC-MS/MS analysis; assay type: ADME, organism-based; conditions: read-out: Ct
[27] = Drug concentration in male ICR mouse cerebrospinal fluid at 10 mg/kg, ip measured after 0.25 hrs by LC-MS/MS analysis; assay type: ADME, organism-based; conditions: read-out: Ct
[28] = Ratio of drug concentration in male ICR mouse brain to plasma at 20 mg/kg, po measured after 0.25 hrs by LC-MS/MS analysis; assay type: ADME, organism-based; conditions: read-out: BPR
[29] = Ratio of drug concentration in male ICR mouse brain to plasma at 20 mg/kg, po measured after 0.5 hrs by LC-MS/MS analysis; assay type: ADME, organism-based; conditions: read-out: BPR
[30] = Ratio of drug concentration in male ICR mouse brain to plasma at 10 mg/kg, ip measured after 0.25 hrs by LC-MS/MS analysis; assay type: ADME, organism-based; conditions: read-out: BPR
[31] = Ratio of drug concentration in male ICR mouse brain to plasma at 10 mg/kg, ip measured after 0.5 hrs by LC-MS/MS analysis; assay type: ADME, organism-based; conditions: read-out: BPR
Mus musculus [32] = assay: Antiepileptic activity in MES-induced seizure male ICR mouse model assessed as protection against tonic hind limb extension at 2 mg/kg, ip measured after 30 mins relative to control; assay type: functional; conditions: 0.5 h
Mus musculus [33] = assay: Antiepileptic activity in MES-induced seizure male ICR mouse model assessed as protection against tonic hind limb extension at 5 mg/kg, ip measured after 30 mins relative to control; assay type: functional; conditions: 0.5 h
Mus musculus [34] = assay: Antiepileptic activity in MES-induced seizure male ICR mouse model assessed as protection against tonic hind limb extension at 10 mg/kg, ip measured after 30 mins relative to control; assay type: functional; conditions: 0.5 h
Mus musculus [35] = assay: Antiepileptic activity in MES-induced seizure male ICR mouse model assessed as protection against tonic hind limb extension administered intraperitoneally for 30 mins; assay type: functional; conditions: 0.5 h, route ip
Mus musculus [36] = assay: Antiepileptic activity in 6 Hz(32 mA)-induced seizure male C57BL mouse model assessed as protection against seizure at 100 mg/kg, ip administered for 30 mins by epilepsy test; assay type: functional; conditions: 0.5 h
Mus musculus [37] = assay: Antiepileptic activity in 6 Hz(32 mA)-induced seizure male C57BL mouse model assessed as reduction in seizure time at 100 mg/kg, ip administered for 30 mins by epilepsy test (reference value: 22.7 +/- 1.6 sec); assay type: functional; conditions: 0.5 h
[38] = Neurotoxicity in male ICR mouse assessed as motor impairment at 25 mg/kg, ip administered for 30 mins by rotarod test relative to control; assay type: toxicity, organism-based; conditions: in vivo, 0.5 h
[39] = Neurotoxicity in male ICR mouse assessed as motor impairment at 30 mg/kg, ip administered for 30 mins by rotarod test relative to control; assay type: toxicity, organism-based; conditions: in vivo, 0.5 h
[40] = molecular target: T1, Sodium channel protein type 2 subunit alpha; assay: Inhibition of human Nav1.2 expressed in HEK293 cells assessed as effect on steady state activation by measuring half activation potential at 10 uM (reference value: -33 mV); assay type: cell-based

T1 sequence (Q99250 whole entry, looked up): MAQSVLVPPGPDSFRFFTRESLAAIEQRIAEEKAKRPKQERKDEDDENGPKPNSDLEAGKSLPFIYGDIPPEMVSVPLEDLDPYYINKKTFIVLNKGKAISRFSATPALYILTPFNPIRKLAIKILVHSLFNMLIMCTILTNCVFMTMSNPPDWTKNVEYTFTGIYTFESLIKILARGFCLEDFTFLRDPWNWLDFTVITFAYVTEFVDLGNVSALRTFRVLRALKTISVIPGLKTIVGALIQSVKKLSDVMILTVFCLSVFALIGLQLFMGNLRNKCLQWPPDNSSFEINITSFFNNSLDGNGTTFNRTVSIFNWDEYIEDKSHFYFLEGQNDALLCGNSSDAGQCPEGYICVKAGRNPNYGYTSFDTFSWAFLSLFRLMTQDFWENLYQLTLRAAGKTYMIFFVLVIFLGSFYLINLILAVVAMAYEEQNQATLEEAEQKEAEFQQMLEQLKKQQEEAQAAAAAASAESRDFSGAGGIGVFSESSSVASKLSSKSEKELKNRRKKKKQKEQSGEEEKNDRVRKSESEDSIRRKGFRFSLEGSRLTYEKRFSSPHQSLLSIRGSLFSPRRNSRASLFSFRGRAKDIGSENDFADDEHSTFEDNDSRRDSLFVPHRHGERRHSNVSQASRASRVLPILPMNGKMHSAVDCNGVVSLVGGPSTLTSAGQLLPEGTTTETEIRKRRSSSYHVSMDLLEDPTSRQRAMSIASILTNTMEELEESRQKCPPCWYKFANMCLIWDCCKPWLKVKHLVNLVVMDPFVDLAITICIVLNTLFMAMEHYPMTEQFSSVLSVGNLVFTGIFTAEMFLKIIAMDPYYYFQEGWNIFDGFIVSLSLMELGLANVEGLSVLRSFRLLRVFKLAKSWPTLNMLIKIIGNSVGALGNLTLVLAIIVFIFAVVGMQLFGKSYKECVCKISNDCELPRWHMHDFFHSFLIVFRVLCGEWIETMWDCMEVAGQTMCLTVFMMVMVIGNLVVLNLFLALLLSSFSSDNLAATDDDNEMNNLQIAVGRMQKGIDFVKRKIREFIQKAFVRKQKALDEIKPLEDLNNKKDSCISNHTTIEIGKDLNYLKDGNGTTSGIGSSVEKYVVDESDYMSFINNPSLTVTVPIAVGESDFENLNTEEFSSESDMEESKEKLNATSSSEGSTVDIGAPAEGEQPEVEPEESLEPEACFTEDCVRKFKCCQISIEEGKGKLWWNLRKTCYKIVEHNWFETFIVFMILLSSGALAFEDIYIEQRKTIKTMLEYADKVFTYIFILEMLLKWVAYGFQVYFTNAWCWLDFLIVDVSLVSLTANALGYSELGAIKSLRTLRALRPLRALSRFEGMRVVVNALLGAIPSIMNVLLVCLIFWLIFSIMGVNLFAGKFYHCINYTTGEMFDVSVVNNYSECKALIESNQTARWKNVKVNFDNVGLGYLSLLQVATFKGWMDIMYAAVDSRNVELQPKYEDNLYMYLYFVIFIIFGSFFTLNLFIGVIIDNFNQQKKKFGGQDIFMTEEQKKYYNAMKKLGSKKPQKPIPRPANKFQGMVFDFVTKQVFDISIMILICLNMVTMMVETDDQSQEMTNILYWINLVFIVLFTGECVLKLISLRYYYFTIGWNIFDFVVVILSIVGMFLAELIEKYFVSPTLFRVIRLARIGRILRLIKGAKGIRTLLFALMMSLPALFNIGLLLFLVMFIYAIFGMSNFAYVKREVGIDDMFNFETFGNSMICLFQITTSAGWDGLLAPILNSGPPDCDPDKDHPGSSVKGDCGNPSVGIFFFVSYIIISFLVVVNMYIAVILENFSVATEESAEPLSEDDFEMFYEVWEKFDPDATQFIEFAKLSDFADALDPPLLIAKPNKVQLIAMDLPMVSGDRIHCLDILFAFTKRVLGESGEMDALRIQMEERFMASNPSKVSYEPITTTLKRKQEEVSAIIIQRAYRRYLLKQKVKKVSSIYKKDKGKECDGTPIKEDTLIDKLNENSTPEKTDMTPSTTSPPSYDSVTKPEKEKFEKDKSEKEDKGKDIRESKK
Sodium channel protein type 8 subunit alpha (Homo sapiens), sequence (Q9UQD0 whole entry, looked up): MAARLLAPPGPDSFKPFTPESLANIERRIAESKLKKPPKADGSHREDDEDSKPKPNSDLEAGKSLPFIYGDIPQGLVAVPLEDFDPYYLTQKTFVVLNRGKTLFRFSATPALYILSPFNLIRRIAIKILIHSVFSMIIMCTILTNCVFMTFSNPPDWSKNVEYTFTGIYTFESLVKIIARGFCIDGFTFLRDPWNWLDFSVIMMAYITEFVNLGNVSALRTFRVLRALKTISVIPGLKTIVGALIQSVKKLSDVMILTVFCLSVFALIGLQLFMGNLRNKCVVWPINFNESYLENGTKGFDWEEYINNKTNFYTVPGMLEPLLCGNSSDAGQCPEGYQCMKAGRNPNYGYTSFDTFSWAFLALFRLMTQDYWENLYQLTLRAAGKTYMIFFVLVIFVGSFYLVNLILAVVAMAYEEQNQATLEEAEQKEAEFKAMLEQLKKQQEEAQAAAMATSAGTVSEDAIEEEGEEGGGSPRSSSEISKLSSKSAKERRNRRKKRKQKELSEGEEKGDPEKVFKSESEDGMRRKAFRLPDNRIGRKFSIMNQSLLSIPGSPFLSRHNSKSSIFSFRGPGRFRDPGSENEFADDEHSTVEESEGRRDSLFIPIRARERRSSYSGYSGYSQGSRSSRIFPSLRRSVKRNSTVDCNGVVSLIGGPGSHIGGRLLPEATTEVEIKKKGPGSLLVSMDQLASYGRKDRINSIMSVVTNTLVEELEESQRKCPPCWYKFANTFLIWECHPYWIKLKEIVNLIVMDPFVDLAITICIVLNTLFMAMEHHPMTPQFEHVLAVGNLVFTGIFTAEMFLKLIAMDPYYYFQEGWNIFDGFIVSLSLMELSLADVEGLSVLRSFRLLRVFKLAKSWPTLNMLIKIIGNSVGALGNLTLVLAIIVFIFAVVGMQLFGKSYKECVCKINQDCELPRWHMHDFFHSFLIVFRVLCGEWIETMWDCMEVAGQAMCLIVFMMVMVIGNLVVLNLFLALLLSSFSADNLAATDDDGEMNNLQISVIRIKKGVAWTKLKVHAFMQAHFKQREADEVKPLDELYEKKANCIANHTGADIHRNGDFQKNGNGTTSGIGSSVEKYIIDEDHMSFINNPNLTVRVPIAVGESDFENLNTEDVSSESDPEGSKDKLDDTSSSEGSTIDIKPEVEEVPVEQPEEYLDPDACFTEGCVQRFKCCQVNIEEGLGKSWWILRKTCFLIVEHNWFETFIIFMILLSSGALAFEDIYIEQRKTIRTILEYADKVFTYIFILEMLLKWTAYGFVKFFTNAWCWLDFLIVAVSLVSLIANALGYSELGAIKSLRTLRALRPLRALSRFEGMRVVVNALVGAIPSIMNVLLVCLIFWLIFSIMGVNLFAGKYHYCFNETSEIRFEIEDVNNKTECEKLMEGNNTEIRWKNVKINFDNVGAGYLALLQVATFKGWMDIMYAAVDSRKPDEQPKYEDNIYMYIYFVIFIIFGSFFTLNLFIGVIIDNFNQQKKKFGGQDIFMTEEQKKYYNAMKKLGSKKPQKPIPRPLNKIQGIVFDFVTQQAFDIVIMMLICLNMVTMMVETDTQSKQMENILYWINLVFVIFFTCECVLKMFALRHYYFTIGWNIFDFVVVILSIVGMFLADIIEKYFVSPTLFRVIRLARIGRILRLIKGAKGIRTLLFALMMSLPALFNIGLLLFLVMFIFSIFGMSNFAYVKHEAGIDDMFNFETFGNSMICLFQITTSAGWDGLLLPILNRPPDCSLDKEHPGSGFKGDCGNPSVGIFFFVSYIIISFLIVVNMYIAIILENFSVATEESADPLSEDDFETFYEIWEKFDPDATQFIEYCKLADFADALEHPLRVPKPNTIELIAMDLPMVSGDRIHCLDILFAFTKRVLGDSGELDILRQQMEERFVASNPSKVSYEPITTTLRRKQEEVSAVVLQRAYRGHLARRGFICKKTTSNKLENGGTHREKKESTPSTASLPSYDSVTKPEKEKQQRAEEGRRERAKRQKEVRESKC

**Q.** For COc1cccc(-c2cc(N3CCCc4ccccc4C3)nc(N)n2)c1, which T/C [1] is on record?
**A.** 0.02

**Q.** And the T/C [2]?
**A.** 0.6

**Q.** And the inhibition [3]?
**A.** 40%

**Q.** And the T/C [4]?
**A.** 0.65

**Q.** What about the T/C [5] of the same compound?
**A.** 0.87

**Q.** What about the T/C [6] of the same compound?
**A.** 0.06

**Q.** And the T/C [7]?
**A.** 0.53

**Q.** And the T/C [8]?
**A.** 0.06

**Q.** What about the Tmax [9] of the same compound?
**A.** 15 min

**Q.** What about the AUC(0-inf) [10] of the same compound?
**A.** 0.118 µg·h/mL

**Q.** What about the MRT inf [11] of the same compound?
**A.** 130 min

**Q.** What about the half-life [12] of the same compound?
**A.** 82.8 min

**Q.** What about the bioavailability [13] of the same compound?
**A.** 3%

**Q.** What about the MRT inf [14] of the same compound?
**A.** 51 min

**Q.** And the half-life [15]?
**A.** 56.4 min

**Q.** And the bioavailability [16]?
**A.** 43%

**Q.** And the Cmax [17]?
**A.** 0.389 µg/mL

**Q.** And the AUC(0-inf) [18]?
**A.** 0.184 µg·h/mL

**Q.** What about the clearance [19] of the same compound?
**A.** 5.53 L/h/kg

**Q.** What about the half-life [20] of the same compound?
**A.** 31.2 min

**Q.** What about the concentration at 0.25 h [21] of the same compound?
**A.** 0.166 µg/mL

**Q.** What about the concentration at 0.5 h [22] of the same compound?
**A.** 0.0183 µg/mL

**Q.** And the concentration at 0.5 h [23]?
**A.** 0.221 µg/mL

**Q.** And the concentration at 0.5 h [24]?
**A.** 59.3 ng/g

**Q.** What about the concentration at 0.5 h [25] of the same compound?
**A.** 800 ng/g

**Q.** And the concentration at 0.25 h [26]?
**A.** 22.1 ng/g

**Q.** What about the concentration at 0.25 h [27] of the same compound?
**A.** 11.7 ng/g

**Q.** And the Kp at 0.25 h [28]?
**A.** 3.9

**Q.** What about the Kp at 0.5 h [29] of the same compound?
**A.** 3.2

**Q.** What about the Kp at 0.25 h [30] of the same compound?
**A.** 3.1

**Q.** What about the Kp at 0.5 h [31] of the same compound?
**A.** 3.6

**Q.** What about the Activity (Mus musculus [32]) of the same compound?
**A.** 25%

**Q.** What about the Activity (Mus musculus [33]) of the same compound?
**A.** 80%

**Q.** And the Activity (Mus musculus [34])?
**A.** 88%

**Q.** And the ED50 (Mus musculus [35])?
**A.** 3.2 mg/kg

**Q.** And the Activity (Mus musculus [36])?
**A.** 25%

**Q.** What about the Time (Mus musculus [37]) of the same compound?
**A.** 12.9 s

**Q.** What about the Activity [38] of the same compound?
**A.** 18%

**Q.** What about the Activity [39] of the same compound?
**A.** 88%

**Q.** What about the V1/2 [40] of the same compound?
**A.** -31 mV
